# Measurements as given in patent US6958402B2, “3-(imidazolyl)-2-alkoxypropanoic acids” (Pfizer, Inc., priority 2002, dated 2005).
# Structures can show the parent of a compound that is named as a salt.
# Assays:
# [1] = biological target: T1, TAFIa (activated human TAFI) (Homo sapiens, UniProt Q96IY4); assay: Assay for TAFIa inhibition (Ki determination, FAAL substrate hydrolysis); type: biochemical; details: Ki calculated from IC50 with Cheng-Prusoff equation; substrate furylacryloyl-alanyl-lysine, 24° C.; read-out: Ki (TAFla)
# T1 sequence (Q96IY4 115-423): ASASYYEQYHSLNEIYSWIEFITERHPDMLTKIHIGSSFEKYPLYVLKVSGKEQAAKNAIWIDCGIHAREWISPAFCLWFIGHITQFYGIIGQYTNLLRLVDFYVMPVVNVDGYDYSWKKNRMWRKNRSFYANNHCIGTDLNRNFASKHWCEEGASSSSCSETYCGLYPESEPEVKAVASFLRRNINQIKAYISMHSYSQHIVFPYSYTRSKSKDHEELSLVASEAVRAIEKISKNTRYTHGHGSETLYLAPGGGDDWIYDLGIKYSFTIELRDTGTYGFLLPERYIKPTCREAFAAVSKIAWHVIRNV
# Procedure: The compounds are incubated with activated TAFI and a standard substrate for TAFIa, the rate of hydrolysis of the substrate is determined and compared to the rate of hydrolysis in the absence of the compounds, and the amount of inhibition expressed in terms of Ki.
# Human TAFI (recombinant or purified) was activated by incubating 20 μl of stock solution (360 μg/ml) with 10 μl of human thrombin (10NIH units/ml), 10 μl of rabbit thrombomodulin (30 μg/ml), 6 μl calcium chloride (50 mM) in 50 μl of 20 mM HEPES (N-[2-hydroxyethyl]piperazine-N-[2-ethanesulfonic acid]) buffer containing 150 mM sodium chloride and 0.01% TWEEN 80 (polyoxyethylene-sorbitan monooleate) pH 7.6 for 20 minutes at 22° C. At the end of the incubation period, thrombin was neutralised by the addition of 10 μL of PPACK (D-Phe-Pro-Arg chloromethyi ketone) (100 nM). The resulting TAFIa. solution was stored on ice for 5 minutes and finally diluted with 175 μl of HEPES buffer.
# (§1) A number of different dilutions of the test compound in water were made up. To 20 μl of each dilution was added 150 μl of HEPES buffer and 10 μl of TAFIa, which was then pre-incubated for 15 minutes at 24° C. To each dilution was then added 20 μl furylacryloyl-alanyl-lysine (FAAL) at a standard concentration. Substrate turnover was measured by reading the absorbance of the reaction mixture at 330 nm every 15 seconds for 30 minutes. The reaction was performed at 24° C. and samples were mixed for 3 seconds prior to each absorbance reading.
# (§2) A graph of % inhibition against test compound concentration was then plotted; from which was calculated the IC50 value. The Ki value was then calculated using the Cheng-Prusoff equation.
# For the first control, the assay was performed as above, but with 20 μl of water rather than a dilution of the test compound.
# [2] = biological target: T2, human CPN (Homo sapiens, UniProt P15169); assay: CPN Ki determination (TAFIa assay with human CPN substituted for TAFIa); type: biochemical
# T2 sequence (P15169 21-458): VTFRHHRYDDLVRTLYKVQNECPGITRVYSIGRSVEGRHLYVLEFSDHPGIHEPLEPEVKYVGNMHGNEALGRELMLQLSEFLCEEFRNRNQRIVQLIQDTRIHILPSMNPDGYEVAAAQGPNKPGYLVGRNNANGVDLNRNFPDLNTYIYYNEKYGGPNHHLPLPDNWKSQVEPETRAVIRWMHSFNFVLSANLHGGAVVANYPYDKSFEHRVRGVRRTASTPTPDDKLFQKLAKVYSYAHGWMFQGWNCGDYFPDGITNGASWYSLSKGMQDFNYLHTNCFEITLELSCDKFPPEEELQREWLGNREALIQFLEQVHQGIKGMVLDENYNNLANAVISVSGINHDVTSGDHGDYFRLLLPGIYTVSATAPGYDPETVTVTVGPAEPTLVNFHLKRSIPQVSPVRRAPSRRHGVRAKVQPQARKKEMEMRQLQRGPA
# T2 sequence (P22792 22-545 partner): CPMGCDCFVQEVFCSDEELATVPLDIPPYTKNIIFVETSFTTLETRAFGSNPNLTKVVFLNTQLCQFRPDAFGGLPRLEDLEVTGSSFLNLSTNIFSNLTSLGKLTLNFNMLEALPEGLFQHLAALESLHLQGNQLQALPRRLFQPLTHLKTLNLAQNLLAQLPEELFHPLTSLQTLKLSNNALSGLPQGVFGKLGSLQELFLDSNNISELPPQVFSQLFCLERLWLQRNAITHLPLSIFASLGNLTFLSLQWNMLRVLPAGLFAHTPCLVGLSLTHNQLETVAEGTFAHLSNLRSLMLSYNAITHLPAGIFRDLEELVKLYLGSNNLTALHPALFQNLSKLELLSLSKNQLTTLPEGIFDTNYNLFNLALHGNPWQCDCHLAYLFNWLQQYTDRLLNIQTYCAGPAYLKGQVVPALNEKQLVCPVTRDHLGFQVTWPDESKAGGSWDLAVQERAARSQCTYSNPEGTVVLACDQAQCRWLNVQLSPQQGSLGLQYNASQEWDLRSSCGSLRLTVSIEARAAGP
# Procedure: as §1, §2
# The selectivity of the compounds of the present invention for TAFIa over CPN was determined by calculating the Ki of the compounds of the present invention for CPN, then comparing it to the Ki for TAFIa. The Ki was calculated using the assay for the calculation of TAFIa Ki, but substituting 10 μl of human CPN for 10 μl of TAFIa.
Ki [1] [nM],Selectivity for TAFIa over CPN ([2]; Ki for CPN compared to Ki for TAFIa),Ki ([2]; same assay with 10 μl human CPN in place of TAFIa) [nM],SMILES
26,>380,> 10000,"C[C@H](CN)O[C@@H](Cc1c[nH]cn1)C(=O)O [Example 51, (2S)-2-{[(1R)-2-Amino-1-methylethyl]oxy}-3-(1H-imidazol-4-yl)propanoic acid]"
14,–,–,"NCCOC(Cc1cn(-c2cccc(Oc3ccccc3)c2)cn1)C(=O)O (stereo not shown) [Example 40, 2-(2-Aminoethoxy)-3-[1-(3-phenoxyphenyl)-1H-imidazol-4-yl]propanoic acid dihydrochloride]"
10,–,–,NCCOC(Cc1cn(CCc2ccccc2)cn1)C(=O)O (stereo not shown) [Example 4]
9,–,–,"C[C@H](CN)O[C@@H](Cc1cn(-c2ccc(OC3CCCCC3)cc2)cn1)C(=O)O [Example 49, (2S)-2-{[(1R)-2-Amino-1-methylethyl]oxy}-3-{1-[4-(cyclohexyloxy)phenyl]-1H-imidazol-4-yl}propanoic acid]"

SMILES,Ki [1] [nM],Selectivity for TAFIa over CPN ([2]; Ki for CPN compared to Ki for TAFIa),Ki ([2]; same assay with 10 μl human CPN in place of TAFIa) [nM]
"NCCO[C@@H](Cc1cn(CCC2CCCCC2)cn1)C(=O)O [Example 5, (2S)-(−)-2-(2-Aminoethoxy)-3-[1-(2-cyclohexylethyl)-1H-imidazol-4-yl]propanoic acid]",10,–,–
